The test system of data set [1] is SGC-7901 cells. Description: MTT cell proliferation assay, SGC-7901. In kind it is cell-based. Particulars: Homo sapiens, 48 h incubation, x̄ ± s, n = 6. As for the experimental part:
(§1) MCF7, HepG2, SGC-7901 and MCF-10A were purchased from the National Infrastructure of Cell Line Resources in the Chinese Academy of Sciences (Shanghai Institute of Biochemistry and Cell Biology, Shanghai, China). Cells were maintained using RPMI-1640 medium with 10% fetal bovine serum. The cells were maintained at 37 °C in a 5% CO2-containing incubator for all treatments. Logarithmic growth phase cells were used in all experiments.
(§2) The effect of compounds on the proliferation of cancer cells was determined with an MTT assay. Cells monolayer in exponential growth were seeded in 96-well plates at 5 × 10^3 cells/well. After cultured at 37 °C for 24 h, the culture medium was removed, then compounds (3a–4c) (1.25, 2.5, 5, 10, 20, 40, 80 μM) and HCPT (4, 8, 16 μM) were added. After 48 h incubation, 100 µL of MTT was added to each well and then cultured for 4 h in a 37 °C incubator. After that, the medium was aspirated, 150 µL of DMSO was then added to each well, and the 96-well plates were placed on an orbital shaker for 12 min until the formazan dissolved completely. The absorbance was measured at a test wavelength of 490 nm with a microplate reader, the optical density (OD) values were tested and the inhibitory rate and half inhibitory concentration (IC50) were calculated for each administration group.

Data set [2] deals with HepG2 cells. The data set can be described thus: MTT cell proliferation assay, HepG2. In kind it is cell-based. As to conditions: Homo sapiens, 48 h incubation, x̄ ± s, n = 6. The protocol:
as §1, §2

For data set [3], the system named is MCF7 cells. Description: MTT cell proliferation assay, MCF7. It counts as cell-based. Particulars: Homo sapiens, 48 h incubation, x̄ ± s, n = 6. As for the experimental part: as §1, §2
For orientation: Tetrazolium assays rely on reduction of a dye to a coloured formazan, in cell work by metabolically active cells.

In data set [4] the test system is MCF7 cells. The data set can be described thus: Apoptosis of MCF7 cells by flow cytometry. As to conditions: MCF7, 56 μM, 48 h, n = 3. In kind it is cell-based. As for the experimental part:
Cells were cultured in the medium for 24 h and treated with compounds in different concentrations and HCPT incubated for 48 h. The cells were centrifuged at 1000 rpm for 10 min and washed with PBS. Subsequently, the cells were […] stained with annexin V-FITC (10 μL) and propidium iodide (PI; 10 μL). The proportion of apoptotic cells was then measured by flow cytometry.
On the technique in general: A flow cytometer gives signals particle by particle.

The subject of data set [5] is Bcl-2. The data set can be described thus: Western Blot, Bcl-2 expression in MCF7 cells. It counts as cell-based. As to conditions: MCF7, 14, 28, 56 μM, 48 h. The protocol: (§3) Cells were cultured in the medium for 24 h and treated with compounds in different concentrations and HCPT for 48 h. After lysis buffer (RIPA: PMSF = 100:1) was used to lyse cells. The lysate was further sonicated and centrifuged at 12,000 rpm for 15 min, then the supernatant obtained was collected and the denatured protein mixture was subjected to SDS gel electrophoresis and transferred to nitrocellulose membranes, and blocked with containing 5% nonfat milk. Then, the membranes were incubated with the primary antibodies (1:1000, overnight 4 °C) and secondary antibodies (1:5000, 1 h). Then, ECL Solution was used to detect the antigen–antibody complexes. The data were analyzed by NIH Image J 1.53a software.
(In general: Immunoblotting shows a protein as a band on a membrane.)

Data set [6] has as its system Bax. Description: Western Blot, Bax expression in MCF7 cells. It counts as cell-based. Particulars: MCF7, 14, 28, 56 μM, 48 h. As for the experimental part: as §3
Data set [7] deals with MCF7 cells. Description: Mitochondrial membrane potential assay (rhodamine 123, flow cytometry). It counts as cell-based. Particulars: MCF7, dose–effect relationship. As for the experimental part:
MCF7 cells were cultured in 6-well plates, after treatment with compounds in different concentrations and positive control group (HCPT), cells were harvested, washed with PBS, and then stained with rhodamine 123 (100 µg) for 30 min at 37 °C. The cells were collected by pipetting, washed twice with PBS and analyzed by flow cytometry (BD Biosciences, San Jose, CA, USA).

Data set [8] concerns p53. Description: Western Blot, p53 expression in MCF7 cells. Particulars: MCF7, 14, 28, 56 μM, 48 h. It counts as cell-based. As for the experimental part: as §3
For data set [9], the system named is MCF7 cells. Description: Cell cycle detection by flow cytometry (PI). In kind it is cell-based. Particulars: 14, 28 and 56 μM, dose-dependent. As for the experimental part:
After the treatments, the harvested cells were incubated at 70% in ice-ethanol overnight. Subsequently, they were washed twice using PBS and incubated with propidium iodide (PI) and RNase A. Finally, the proportions of cells in different cell cycle phases were determined by flow cytometry.

In data set [10] the test system is MCF-10A cells. Description: In vitro cytotoxicity against normal breast cell line. In kind it is cell-based. The protocol: as §1, §2
Data set [11] deals with Caspase-3. Description: Western Blot, Caspase-3 expression in MCF7 cells. It counts as cell-based. Particulars: MCF7, 14, 28, 56 μM, 48 h. As for the experimental part: as §3
Data set [12] concerns Caspase-9. Description: Western Blot, Caspase-9 expression in MCF7 cells. In kind it is cell-based. As to conditions: MCF7, 14, 28, 56 μM, 48 h. As for the experimental part: as §3
Data set [13] relates to MCF7. Details: method as in PMID 32163051, PMID 22821173. As to conditions: breast cancer cell viability; cited from earlier work.
The subject of data set [14] is MDA-MB-453 cells. Details: method as in PMID 32163051, PMID 22821173. As to conditions: breast cancer cell viability; cited from earlier work.

In the case of `O=C(Nc1ncnc2c1ncn2[C@@H]1O[C@H](CO)C[C@H]1O)c1ccc(Cl)nc1` [Compound 4c, 6-6-Chloronicotinamide-3′-deoxyadenosine], the IC50 is 80.4 ± 1.05 µM in data set [1], 48.4 ± 0.79 µM in [2] and 45.3 ± 0.58 µM in data set [3].

Consider `CC[C@@]1(O)C(=O)OCc2c1cc1n(c2=O)Cc2cc3cc(O)ccc3nc2-1` [10-hydroxycamptothecin (HCPT), 10-hydroxycamptothecin, reference compound], for which the IC50 amounted to 7.96 ± 0.65 µM in data set [1], 6.56 ± 0.45 µM in [2] and 7.56 ± 0.05 µM in data set [3].

In the case of `CC(C)(C)[Si](C)(C)OC[C@@H]1C[C@@H](O)[C@H](n2cnc3c(NC(=O)c4cccs4)ncnc32)O1` [Compound 3a, 5′-O-(Tert-butyldimethylsilyl)-6-thiophenecarboxamide-3′-deoxya-denosine], the concentration for half-maximal inhibition (IC50) in data set [1] came to 102 ± 1.08 µM; in data set [2] it was 134 ± 5.12 µM; in data set [3], 114 ± 2.03 µM.

For `CC(C)(C)[Si](C)(C)OC[C@@H]1C[C@@H](O)[C@H](n2cnc3c(NC(=O)c4ccco4)ncnc32)O1` [Compound 3b, 5′-O-(Tert-butyldimethylsilyl)-6-furancarboxamide-3′-deoxyadenosine], the 50% inhibitory concentration (IC50) in [1] turned out to be 41.7 ± 2.36 µM; in [2] it was 60.4 ± 1.15 µM; in data set [3], 98.03 ± 0.04 µM.

On to `O=C(Nc1ncnc2c1ncn2[C@@H]1O[C@H](CO)C[C@H]1O)c1cccs1` [Compound 4a, 6-Thiophenecarboxamide-3′-deoxyadenosine], for which the “percentage of apoptotic cells” value in data set [4] came to 50.422 ± 1.862%. Also, the IC50 in data set [1] turned out to be 38.93 ± 0.06 µM; in data set [2], 68.8 ± 3.34 µM; in data set [3] it was 27.6 ± 0.52 µM. Besides, in [5], the “expression of Bcl-2 protein” value is “down-regulate”. Moreover, in data set [6], the “expression of Bax” value is “up-regulate”. Besides, the “positive expression rate and cell membrane potential with increase in dose” value in data set [7] is on record as “decrease gradually”. Moreover, in data set [8], the “expression of p53” value was “up-regulate”. The “effect on MCF7 cell cycle” value in data set [9] is “cell cycle arrest at the G0/G1 phase”. The “in vitro cytotoxicity against MCF-10A” value in data set [10] is reported as “low toxicity”. Moreover, in data set [11], the “expression of Caspase-3” value is “up-regulate”. Besides, the “expression of Caspase-9” value in [12] is reported as “up-regulate”.

With `CC(C)(C)[Si](C)(C)OC[C@@H]1C[C@@H](O)[C@H](n2cnc3c(NC(=O)c4ccc(Cl)nc4)ncnc32)O1` [Compound 3c, 5′-O-(Tert-butyldimethylsilyl)-6-6-chloroformamide-3′-deoxya-denosine], the results for the IC50 in data set [1], in data set [2] and in [3] were 82.6 ± 1.48 µM, 87.01 ± 0.04 µM and 45.8 ± 1.01 µM, respectively.

As to `Nc1ncnc2c1ncn2[C@@H]1O[C@H](CO)C[C@H]1O` [Cordycepin], the IC50 is 51.3 ± 3.77 µM in data set [1]; 51.8 ± 1.36 µM in data set [2]; 135 µM in [13]; 70 µM in data set [14]; 46.9 ± 1.62 µM in data set [3].

`O=C(Nc1ncnc2c1ncn2[C@@H]1O[C@H](CO)C[C@H]1O)c1ccco1` [Compound 4b, 6-Furancarboxamide-3′-deoxyadenosine]: the half-maximal inhibitory concentration (IC50) stood at 86.3 ± 2.35 µM in [1], 33.37 ± 0.08 µM in data set [2] and 40.9 ± 1.67 µM in data set [3].

By IC50 is commonly meant the point on the concentration scale where inhibition reaches its midpoint.

The record behind these values is PMC10819979, “Antitumor Mechanism and Therapeutic Potential of Cordycepin Derivatives” (Molecules, 2024).
